Reference: patent publication US8465973B2, “Topical compositions containing phosphorylated polyphenols” (Estee Lauder Coordination Center N.V., priority 2004, dated 2013)
Values after ≈ are worked out from the molar mass of the structure shown.

Columns and labels:
[1] = Water solubility of resveratrol and resveratrol triphosphate; type: physicochemical
Description: The water solubility of resveratrol is tested at pH 7 in 1 mM potassium phosphate buffer at room temperature. Ten mg of resveratrol (M.W. 228.24) are suspended in 10 ml of buffer. This suspension, corresponding to a concentration of 1 g/l or 4.38 mM, is agitated for 24 hours in a rotary shaker at 25° C. in the dark. The sample is centrifuged at 14,000 rpm for 5 minutes and an OD of 6.26 is determined at 305 nm wavelength at which the ε mM of resveratrol has a value of 28.1. Assuming complete solubility of resveratrol, the OD that should have been obtained is 123.1 (4.38×28.1). With an observed OD of 6.26, the percentage of dissolved resveratrol is 5.1% (6.26×100/123.1) or […].
(§1) In contrast, the solubility and stability of the resveratrol triphosphate tested under the same conditions, in water of different pH, in the range of 4 to 9, at room temperature.

[2] = Visual (color) stability of a cosmetic formulation; type: physicochemical; conditions: for color of formulation: 0.1% resveratrol or 0.2% resveratrol^Pi in base formula
Description: Three base formulas are prepared, the control containing no resveratrol, the other two formulas being identical to the control but for one containing 0.1% unmodified resveratrol, and the other containing 0.2% of phosphorylated resveratrol (Resveratrol^Pi).
The color of the control base is white, and with addition of the resveratrols, it takes on a light beige color. Each formulation is observed once a week for a period of four weeks to determine the presence of a color change (indicative of changing color stability), under three different environmental conditions: 50° C., 4° C., and room temperature (RT).

[3] = tested on: extractable fraction of human SC D-squame tape strippings (acid phosphatase present on the skin); assay: Dephosphorylation of resveratrol^Pi by extractable fraction of stratum corneum D-squame tape strippings; conditions: resveratrol^Pi 0.22 mg/ml or 0.47 mM, FIG. 3; for correlation (r) of amount with incubation time: N=15
Description: D-squame tape strippings were collected on the inner lower arm of one panelist. […] The extractable fraction was transferred to another vial and mixed with resveratrol^Pi stock-solution. The concentration of resveratrol^Pi during the incubation was 0.22 mg/ml or 0.47 mM. At various incubation time points a 25 μl aliquot of the incubation mixture was diluted in 25 μl 10 mM o-phosphoric acid and 50 μl of MeOH and injected onto the HPLC system.

[4] = tested on: acid phosphatase from wheat germ; assay: Enzymatic dephosphorylation of resveratrol^Pi by acid phosphatase, HPLC analysis; conditions: resveratrol^Pi 1.6 mg/ml, acid phosphatase 0.056 U/ml, pH 5.5; FIG. 2
Description: The experimental conditions for the HPLC analysis of resveratrol are shown below.
Phosphorylated resveratrol was incubated in the presence of acid phosphatase from wheat germ (Sigma, P3627 lot 081K7071) in 0.147M (NH4)2SO4/0.81 mM MgCl2 pH 5.5. The concentration of resveratrol^Pi and acid phosphatase was 1.6 mg/ml and 0.056 U/ml respectively. Aliquots were taken at different time intervals and analysed by HPLC (conditions see above).

[5] = Stability of resveratrol triphosphate in solid and water solution form; type: physicochemical
Source text: as §1

Q: Which solubility at 24 h ([1]; 25 °C, pH 7, aqueous buffer, thermodynamic from solid) does the source give for Oc1ccc(/C=C/c2cc(O)cc(O)c2)cc1 [resveratrol] here?
A: 5.1 µg/mL (≈ 22.3 µM)

Q: What about the “percentage of dissolved resveratrol” value ([1]; pH 7, 1 mM potassium phosphate buffer, 1 g/l suspension, 24 hours, 25° C., OD at 305 nm) of the same compound?
A: 5.1%

Q: What about the color of formulation ([2]; 1 week, 4° C.) of the same compound?
A: lt beige

Q: And the color of formulation ([2]; 1 week, 50° C.)?
A: lt beige

Q: What about the color of formulation ([2]; 1 week, room temperature) of the same compound?
A: lt beige

Q: And the color of formulation ([2]; 2 weeks, 4° C.)?
A: lt beige

Q: What about the color of formulation ([2]; 2 weeks, 50° C.) of the same compound?
A: lt beige

Q: And the color of formulation ([2]; 2 weeks, room temperature)?
A: lt beige

Q: And the color of formulation ([2]; 3 weeks, 4° C.)?
A: lt beige

Q: And the color of formulation ([2]; 3 weeks, 50° C.)?
A: lt beige (vsl darker with sl top oxidation)

Q: And the color of formulation ([2]; 3 weeks, room temperature)?
A: lt beige

Q: And the color of formulation ([2]; 4 weeks, 4° C.)?
A: lt beige (sl lighter beige than RT)

Q: And the color of formulation ([2]; 4 weeks, 50° C.)?
A: beige (sl darker than RT with top oxidation)

Q: And the color of formulation ([2]; 4 weeks, room temperature)?
A: lt beige/beige

Q: What about the “correlation (r) of amount with incubation time” value [3] of the same compound?
A: 0.99

Q: With resveratrol diphosphate as the compound, how does the “incubation time at which the maximum amount is reached” value [4] read?
A: around 85 minutes

Q: Which solubility ([1]; water of different pH, range 4 to 9, room temperature) does the source give for resveratrol triphosphate here?
A: > 30 % w/v

Q: And the stability [5]?
A: stable in both solid and water solution form for periods in excess of one year

Q: And the “conversion on treatment with acid phosphatase (HPLC)” value [4]?
A: decreased gradually

Q: What about the “color development versus unmodified resveratrol” value ([2]; at the end of four weeks) of the same compound?
A: less color development than the unmodified resveratrol

Q: What about the “correlation (r) of amount with incubation time” value [3] of the same compound?
A: −0.69

Q: What about the “conversion on incubation with extractable fraction of SC D-squame tape strippings (HPLC)” value ([3]; pH 5.6) of the same compound?
A: decreased gradually
